Read-outs that look alike come from different tables or passages of the source. Marks after values point to notes of the source that are not given here.
Key:
Fusarium graminearum = format: cell-based
Cochliobolus miyabeanus = test: In vitro growth on cervinomycin-amended growth media; format: cell-based
Magnaporthe oryzae = format: in vivo
Zymoseptoria tritici = test: Host plant efficacy assay (wheat); format: in vivo; settings: in vivo
Pyrenophora teres = test: Host plant efficacy assay (barley); format: in vivo; settings: in vivo
Phakopsora pachyrhizi = test: Host plant efficacy assay (soybean); format: in vivo; settings: in vivo
Phytophthora infestans = format: in vivo
Podosphaera xanthii = test: Host plant efficacy assay (cucumber); format: in vivo; settings: in vivo
Erysiphe diffusa = test: Host plant efficacy assay (soybean); format: in vivo; settings: in vivo
[1] = system: Pseudoperonospora cubensis; test: Foliar application, inoculated plants, disease severity; settings: for Disease severity P. cubensis Oct. 20, 2020: carrier control severity 70; for Disease severity P. cubensis Oct. 27, 2020: carrier control severity 79; for Disease severity P. cubensis Jul. 28, 2020: carrier control severity 67; for Disease severity P. cubensis Jul. 21, 2020: carrier control severity 100
Description: (§1) Biological efficacy assays utilizing cervinomycins were conducted on Pseudoperonospora cubensis and Botrytis cinerea. […] Once plants had dried they were inoculated with the pathogen, then were stored in a controlled climate chamber under high humidity for 4-6 days. At the end of the experiment disease severity was determined based on the percentage of plant tissue that was visually symptomatic.

Botrytis cinerea = test: as above; settings: for Disease severity B. cinerea: carrier control severity 63.3; for percent control B. cinerea: vs carrier control
Description: as §1

Plasmospora viticola = test: Efficacy on grape plants infected with Plasmospora viticola; settings: for % control Plasmospora viticola 1DAI: 1 day after infection; for % control Plasmospora viticola 1DAI / % control Plasmospora viticola 1DB1 / % control Plasmospora viticola 7DBI: grape plants; for % control Plasmospora viticola 1DB1: 1 day before infection; for % control Plasmospora viticola 7DBI: 7 days before infection
Excerpt: Treatments occurred at either 1 day before infection (“1 DBI”), 7 days before infection (“7 DBI”) or 1 day after infection (“1 DAI”).

[2] = 1 ppm foliar, vs carrier control
[3] = 3 ppm foliar, vs carrier control
[4] = 6 ppm foliar, vs carrier control
[5] = 12 ppm foliar, vs carrier control
[6] = 25 ppm foliar, vs carrier control
[7] = 30 ppm foliar, vs carrier control
[8] = 50 ppm foliar, vs carrier control

COc1cc2oc3c(O)c4ccc5cc6c(c(O)c5c4c(O)c3c(=O)c2cc1OC)C(=O)N1CCOC1(C)C6 (centres unmarked) [Cervinomycin A1, cervinomycin A1]
% Control Fusarium graminearum (Fusarium graminearum; 0.004 ppm in growth media): 4% | % Control Fusarium graminearum (Fusarium graminearum; 0.016 ppm in growth media): 6% | % Control Fusarium graminearum (Fusarium graminearum; 0.063 ppm in growth media): 7% | % Control Fusarium graminearum (Fusarium graminearum; 0.25 ppm in growth media): 20% | % Control Fusarium graminearum (Fusarium graminearum; 1 ppm in growth media): 31% | % Control Cochliobolus miyabeanus (Cochliobolus miyabeanus; 0.004 ppm in growth media): 1% | % Control Cochliobolus miyabeanus (Cochliobolus miyabeanus; 0.016 ppm in growth media): 2% | % Control Cochliobolus miyabeanus (Cochliobolus miyabeanus; 0.063 ppm in growth media): 29% | % Control Cochliobolus miyabeanus (Cochliobolus miyabeanus; 0.25 ppm in growth media): 59% | % Control Cochliobolus miyabeanus (Cochliobolus miyabeanus; 1 ppm in growth media): 74% | % control Magnaporthe oryzae Rice 1DBI (Magnaporthe oryzae; 11.3 ppm): 0 (0 (about 0%)) | % control Magnaporthe oryzae Rice 1DBI (Magnaporthe oryzae; 45 ppm): 0 (0 (about 0%)) | % control Magnaporthe oryzae Rice 1DBI (Magnaporthe oryzae; 180 ppm): 0 (0 (about 0%)) | % control Zymoseptoria tritici Wheat 3DAI (Zymoseptoria tritici): 0 (key: 5 (about 100%); 4 (about 90%); 3 (about 70%); 2 (about 50%); 1 (about 25%); 0 (about 0%)) | % control Zymoseptoria tritici Wheat 4DBI (Zymoseptoria tritici): 0 (key: 5 (about 100%); 4 (about 90%); 3 (about 70%); 2 (about 50%); 1 (about 25%); 0 (about 0%)) | % control Pyrenophora teres Barley 1DBI (Pyrenophora teres): 0 (key: 5 (about 100%); 4 (about 90%); 3 (about 70%); 2 (about 50%); 1 (about 25%); 0 (about 0%)) | % control Phakopsora pachyrhizi Soybean 3DAI (Phakopsora pachyrhizi): 0 (key: 5 (about 100%); 4 (about 90%); 3 (about 70%); 2 (about 50%); 1 (about 25%); 0 (about 0%)) | % control Phytophthora infestans Tomato 1DBI (Phytophthora infestans; 11.3 ppm): 0 (0 (about 0%)) | % control Phytophthora infestans Tomato 1DBI (Phytophthora infestans; 45 ppm): 0 (0 (about 0%)) | % control Phytophthora infestans Tomato 1DBI (Phytophthora infestans; 180 ppm): 3 (3 (about 70%)) | % control Podosphaera xanthii Cucumber 1DBI (Podosphaera xanthii): 0 (key: 5 (about 100%); 4 (about 90%); 3 (about 70%); 2 (about 50%); 1 (about 25%); 0 (about 0%)) | % control Erysiphe diffusa Soybean 2DAI (Erysiphe diffusa): 0 (key: 5 (about 100%); 4 (about 90%); 3 (about 70%); 2 (about 50%); 1 (about 25%); 0 (about 0%)) | Disease severity P. cubensis Oct. 20, 2020 ([1]; 1 ppm foliar): 13% | Disease severity P. cubensis Oct. 27, 2020 ([1]; 1 ppm foliar): 2% | percent control P. cubensis Oct. 20, 2020 [1, 2]: (81%)* | percent control P. cubensis Oct. 27, 2020 [1, 2]: 98% | Disease severity P. cubensis Jul. 28, 2020 ([1]; 3 ppm foliar): 47% | Disease severity P. cubensis Oct. 20, 2020 ([1]; 3 ppm foliar): 3% | Disease severity P. cubensis Oct. 27, 2020 ([1]; 3 ppm foliar): 1% | percent control P. cubensis Jul. 28, 2020 [1, 3]: 30% | percent control P. cubensis Oct. 20, 2020 [1, 3]: (96%) | percent control P. cubensis Oct. 27, 2020 [1, 3]: 99% | Disease severity P. cubensis Oct. 20, 2020 ([1]; 6 ppm foliar): 2% | Disease severity P. cubensis Oct. 27, 2020 ([1]; 6 ppm foliar): 1% | percent control P. cubensis Oct. 20, 2020 [1, 4]: (97%) | percent control P. cubensis Oct. 27, 2020 [1, 4]: 99% | Disease severity P. cubensis Jul. 28, 2020 ([1]; 7.5 ppm foliar): 43% | percent control P. cubensis Jul. 28, 2020 ([1]; 7.5 ppm foliar, vs carrier control): 36% | Disease severity P. cubensis Oct. 20, 2020 ([1]; 12 ppm foliar): 1% | Disease severity P. cubensis Oct. 27, 2020 ([1]; 12 ppm foliar): 2% | percent control P. cubensis Oct. 20, 2020 [1, 5]: (99%) | percent control P. cubensis Oct. 27, 2020 [1, 5]: 98% | Disease severity P. cubensis Jul. 28, 2020 ([1]; 15 ppm foliar): 16% | percent control P. cubensis Jul. 28, 2020 ([1]; 15 ppm foliar, vs carrier control): 76% | Disease severity P. cubensis Oct. 20, 2020 ([1]; 25 ppm foliar): 1% | Disease severity P. cubensis Oct. 27, 2020 ([1]; 25 ppm foliar): 1% | percent control P. cubensis Oct. 20, 2020 [1, 6]: (99%) | percent control P. cubensis Oct. 27, 2020 [1, 6]: 99% | Disease severity P. cubensis Jul. 28, 2020 ([1]; 30 ppm foliar): 7% | Disease severity P. cubensis Jul. 14, 2020 ([1]; 30 ppm foliar, carrier control severity 98): 25% | Disease severity P. cubensis Jul. 21, 2020 ([1]; 30 ppm foliar): 3% | percent control P. cubensis Jul. 14, 2020 [1, 7]: 74% | percent control P. cubensis Jul. 21, 2020 [1, 7]: 97% | percent control P. cubensis Jul. 28, 2020 [1, 7]: 89% | Disease severity P. cubensis Oct. 20, 2020 ([1]; 50 ppm foliar): 0.4% | Disease severity P. cubensis Oct. 27, 2020 ([1]; 50 ppm foliar): 1% | percent control P. cubensis Oct. 20, 2020 [1, 8]: (99%) | percent control P. cubensis Oct. 27, 2020 [1, 8]: 99% | Disease severity P. cubensis Jul. 21, 2020 ([1]; 192 ppm foliar): 3% | percent control P. cubensis Jul. 21, 2020 ([1]; 192 ppm foliar, vs carrier control): 97% | control of Pseudoperonospora cubensis (summary of Table 3) ([1]; foliar application): significant control | Disease severity B. cinerea (Botrytis cinerea; 1 ppm foliar): 31% | percent control B. cinerea (Botrytis cinerea; 1 ppm foliar): (51%) | Disease severity B. cinerea (Botrytis cinerea; 3 ppm foliar): 17% | percent control B. cinerea (Botrytis cinerea; 3 ppm foliar): (74%) | Disease severity B. cinerea (Botrytis cinerea; 6 ppm foliar): 9% | percent control B. cinerea (Botrytis cinerea; 6 ppm foliar): (85%) | Disease severity B. cinerea (Botrytis cinerea; 12 ppm foliar): 2% | percent control B. cinerea (Botrytis cinerea; 12 ppm foliar): (96%) | Disease severity B. cinerea (Botrytis cinerea; 25 ppm foliar): 2% | percent control B. cinerea (Botrytis cinerea; 25 ppm foliar): (96%) | Disease severity B. cinerea (Botrytis cinerea; 50 ppm foliar): 1% | percent control B. cinerea (Botrytis cinerea; 50 ppm foliar): (98%) | control of Botrytis cinerea (summary of Table 3) (Botrytis cinerea; foliar application): significant control | control of P. viticiola (summary of Table 1) (Plasmospora viticola; 13-800 ppm): significant control | % control Plasmospora viticola 1DAI (Plasmospora viticola; 13 ppm): 0% | % control Plasmospora viticola 1DB1 (Plasmospora viticola; 13 ppm): 100% | % control Plasmospora viticola 7DBI (Plasmospora viticola; 13 ppm): 80% | % control Plasmospora viticola 1DAI (Plasmospora viticola; 50 ppm): 0% | % control Plasmospora viticola 1DB1 (Plasmospora viticola; 50 ppm): 100% | % control Plasmospora viticola 1DAI (Plasmospora viticola; 200 ppm): 0% | % control Plasmospora viticola 1DB1 (Plasmospora viticola; 200 ppm): 100% | % control Plasmospora viticola 7DBI (Plasmospora viticola; 200 ppm): 100% | % control Plasmospora viticola 1DAI (Plasmospora viticola; 800 ppm): 7% | % control Plasmospora viticola 1DB1 (Plasmospora viticola; 800 ppm): 100% | % control Plasmospora viticola 7DBI (Plasmospora viticola; 800 ppm): 100%
